The source of these data is patent publication EP0554284B1, “PEPTIDE-BASED INHIBITORS OF HIV REPLICATION” (priority 1990, dated 1996).

For one test, the system named is HIV (strain NL4-3). The format is cell-based. An excerpt: Controls used water in place of peptide.
For test [1], the system named is truncated functional form of TAR RNA. Kind of test: RNA gel mobility shift assay, TAR binding. The conditions noted are these: judged relative to tat(1-86) and the oligopeptide representing the tat basic domain; result in words. On the set-up: species or system HIV. The method, then: This assay generally involves the incubation of a selected oligopeptide with gel-purified, radio-labelled TAR RNA, or tat-binding fragment of TAR RNA, that has been produced either by direct synthesis or through transcription of a corresponding DNA template. Samples are loaded onto non-denaturing polyacrylamide gel and subjected to electrophoresis, and then migration of labelled RNA through the gel is visualized on gel-exposed, X-ray film. Oligopeptides which bind TAR are identified in this assay by their characteristic, retarded migration on the gel, relative to TAR RNA to which no oligopeptide has bound. In this mobility shift assay, oligopeptides having an "enhanced" affinity for binding TAR RNA will resolve on the gel as bands which, in addition to displaying the retarded migration pattern characteristic of TAR-binding oligopeptides, will also appear with greater intensity and/or size than a band containing TAR RNA bound to tat (1-86).
(§1) TAR-binding affinity of the oligopeptides relative to HIV tat(1-86) and relative to tat fragments representing the tat basic domain, was evaluated by RNA gel mobility shift assay using as ligand a truncated functional form of TAR RNA having the sequence shown below.
Synthesis of the TAR fragment and its variant analogue was accomplished as described by Roy et al. in Genes and Development, 1990, 4:1365. […]

Another test deals with yeast tRNA. Kind of test: TAR binding compared with yeast tRNA binding (specificity). The note with it: result in words.
In test [2] the test system is variant of TAR which does not bind tat. Kind of test: RNA gel mobility shift assay, binding to non-functional TAR variant (specificity). On the set-up: species or system HIV. The note with it: relative to binding to the non-functional TAR variant; result in words. The procedure: as §1
Synthesis of the TAR fragment and its variant analogue was accomplished as described by Roy et al. in Genes and Development, 1990, 4:1365. The TAR-binding assay was also performed in the manner reported by Roy et al., supra, which is incorporated herein by reference.

In the next test the test system is tat. The conditions noted are these: literature, Green et al; cited from earlier work.

Consider `CC(=O)N[C@H](CCCNC(=N)N)C(=O)N[C@H](CCCCN)C(=O)N[C@H](CCCCN)C(=O)N[C@H](CCCNC(=N)N)C(=O)N[C@H](CCCNC(=N)N)C(=O)N[C@H](CCC(N)=O)C(=O)N[C@H](CCCNC(=N)N)C(=O)N[C@H](CCCNC(=N)N)C(=O)N[C@H](CCCNC(=N)N)C(N)=O` [peptide 4G], for which the “effects on HIV inhibition” value in the test on HIV (strain NL4-3) (5µM pretreatment of HuT78 cells, 7 or 14 days, result in words) is given as “positive effects on HIV inhibition”.
Consider `CC(=O)N[C@H](CCCNC(=N)N)C(=O)N[C@H](CCCNC(=N)N)C(=O)N[C@H](CCCNC(=N)N)C(=O)N[C@H](CCCNC(=N)N)C(=O)N[C@H](CCCNC(=N)N)C(=O)N[C@H](CCCNC(=N)N)C(=O)N[C@H](CCCNC(=N)N)C(=O)N[C@H](CCCNC(=N)N)C(=O)N[C@H](CCCNC(=N)N)C(N)=O` [peptide 4C, acetyl-[D-Arg]9-NH2], for which the TAR-binding affinity result in test [1] is reported as “comparable to the basic domain of wild type tat”. In the test on yeast tRNA, the specificity of binding result is given as “confirmed”. For the same compound, the “specificity for binding to the functional TAR fragment” value in test [2] is listed as “comparable to the wild type basic domain”. Moreover, in the test on HIV (strain NL4-3) (HuT78 cells pretreated with 5µM peptide for 7 or 14 days, 10µM after infection, p24 at four and seven days after infection), the “inhibition of viral replication, as measured by p24 assay” value is reported as ≥ 95%. For the same compound, the formation of syncytia entry in the test on HIV (strain NL4-3) (visual inspection of infected HuT78 cells, same treatment as p24 assay) is given as “completely inhibited”.
For Arg-Lys-Lys-Arg-Arg-Gln-Arg-Arg-Arg, the tat antagonist activity entry in the test on tat is on record as “Weak tat antagonist activity”.
